Earlier results on 2 compounds are cited in patent EP3051247B1, “CHEMICAL CLEANING PROCEDURE FOR HEAT EXCHANGERS” (GD Energy Services S.a.r.l., priority 2013, dated 2015).

Structures are written as SMILES.

The conditions of this data set: for pKa1: first acid dissociation step (AH3 → AH2^- + H^+; BH2 → BH^- + H^+); for pKa2: second acid dissociation step (AH2^- → AH^2- + H^+; BH^- → B^2- + H^+).

Regarding `O=C1O[C@H]([C@@H](O)CO)C(O)=C1O` [Ascorbic acid], the pKa1 entry is given as “pKa1 = 4.1” and the pKa2 entry is on record as “pKa2 = 11.4”.

Regarding `O=C(O)CC(O)(CC(=O)O)C(=O)O` [Citric acid], the pKa1 result is on record as “pKa1 = 3.15” and the pKa2 result is listed as “pKa2 = 4.77”. Besides, the pKa3 entry (third acid dissociation step (AH^2- → A^3- + H^+)) is reported as “pKa3 = 6.40”.
